Measurements taken from patent US20080287430A1, “Furan Compounds Useful As Ep1 Receptor Antagonists” (priority 2005, published 2008).
Where a name gives a salt, the structure may show the parent alone.

Target: T1, human EP1 receptor (Homo sapiens, UniProt P34995)
T1 construct: expressed in transfected cells; host or cells: CHO-K1
T1 sequence (P34995 1-402): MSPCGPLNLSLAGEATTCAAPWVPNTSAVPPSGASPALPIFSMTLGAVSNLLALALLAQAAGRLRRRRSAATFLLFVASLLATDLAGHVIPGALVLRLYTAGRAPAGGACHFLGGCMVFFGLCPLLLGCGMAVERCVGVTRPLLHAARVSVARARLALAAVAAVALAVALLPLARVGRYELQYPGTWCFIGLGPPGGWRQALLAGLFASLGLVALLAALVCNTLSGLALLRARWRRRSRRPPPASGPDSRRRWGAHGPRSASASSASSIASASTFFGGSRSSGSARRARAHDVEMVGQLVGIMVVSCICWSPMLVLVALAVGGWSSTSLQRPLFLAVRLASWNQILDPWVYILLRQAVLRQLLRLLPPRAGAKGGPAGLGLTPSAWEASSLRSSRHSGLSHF
Experiment: human EP1 calcium mobilisation assay
Assay type: cell-based
Conditions: human EP1, PGE2-induced calcium mobilisation in CHO-K1 cells; free bases or sodium salts; averages of a number of experiments; read-out: functional pKi value (converted)
Description: Briefly, the antagonist properties of compounds are assessed by their ability to inhibit the mobilisation of intracellular calcium ([Ca^2+]i) in response to activation of EP1 or EP3 receptors by the natural agonist hormone prostaglandin E2 (PGE2). Increasing concentrations of antagonist reduce the amount of calcium that a given concentration of PGE2 can mobilise. The net effect is to displace the PGE2 concentration-effect curve to higher concentrations of PGE2. The amount of calcium produced is assessed using a calcium-sensitive fluorescent dye such as Fluo-4, AM and a suitable instrument such as a Fluorimetric Imaging Plate Reader (FLIPR). Increasing amounts of [Ca^2+]i produced by receptor activation increase the amount of fluorescence produced by the dye and give rise to an increasing signal. The signal may be detected using the FLIPR instrument and the data generated may be analysed with suitable curve-fitting software.
The human EP1 or EP3 calcium mobilisation assay (hereafter referred to as ‘the calcium assay’) utilises Chinese hamster ovary-K1(CHO-K1) cells into which a stable (pCIN; BioTechniques 20 (1996): 102-110) vector containing either EP1 or EP3 cDNA has previously been transfected. Cells are cultured in suitable flasks containing culture medium such as DMEM:F-12 supplemented with 10% v/v foetal calf serum, 2 mM L-glutamine, 0.25 mg/ml geneticin, 100 μM flurbiprofen and 10 μg/ml puromycin.
For assay, cells are harvested using a proprietary reagent that dislodges cells such as Versene. Cells are re-suspended in a suitable quantity of fresh culture media for introduction into a 384-well plate. Following incubation for 24 hours at 37° C. the culture media is replaced with a medium containing Fluo-4 and the detergent pluronic acid, and a further incubation takes place. Concentrations of compounds are then added to the plate in order to construct concentration-effect curves. This may be performed on the FLIPR in order to assess the agonist properties of the compounds. Concentrations of PGE2 are then added to the plate in order to assess the antagonist properties of the compounds.
The data so generated may be analysed by means of a computerised curve-fitting routine. The concentration of compound that elicits a half-maximal inhibition of the calcium mobilisation induced by PGE2 (pIC50) may then be estimated.

CC(C)COc1ccc(Cl)cc1Cc1ccc(-c2nc3cscc3[nH]2)o1 [Example 109, 2-[5-({5-Chloro-2-[(2-methylpropyl)oxy]-phenyl}methyl)-2-furanyl]-1H-thieno[3,4-d]imidazole]
Ki: < 1000 nM

O=C(Nc1ccccc1-c1ccccc1)c1ccc(Cc2cc(Cl)ccc2OCc2ccccc2)o1 [Example 75, N-2-biphenylyl-5-({5-chloro-2-[(phenylmethyl)oxy]-phenyl}methyl)-2-furancarboxamide]
Ki: > 1000 nM

O=C(NCc1ccccc1)c1ccc(Cc2cc(Cl)ccc2OCc2ccccc2)o1 [Example 48, 5-({5-Chloro-2-[(phenylmethyl)oxy]phenyl}methyl)-N-(phenylmethyl)-2-furancarboxamide]
Ki: < 1000 nM

O=C(Nc1c(F)cccc1F)c1ccc(Cc2cc(Cl)ccc2OCc2cccc(F)c2F)o1 [Example 87, 5-[(5-Chloro-2-{[(2,3-difluorophenyl)methyl]oxy}-phenyl)methyl]-N-(2,6-difluorophenyl)-2-furancarboxamide]
Ki: < 1000 nM

CC(C)COc1ccc(Cl)cc1Cc1ccc(C(=O)NCc2cccc3ccccc23)o1 [Example 47, 5-({5-Chloro-2-[(2-methylpropyl)oxy]phenyl}methyl)-N-(1-naphthalenylmethyl)-2-furancarboxamide]
Ki: < 1000 nM

CC(C)COc1ccc(Cl)cc1Cc1ccc(C(=O)NCc2ccc(C(F)(F)F)cc2)o1 [Example 38, 5-({5-Chloro-2-[(2-methylpropyl)oxy]phenyl}methyl)-N-{[4-(trifluoromethyl)phenyl]methyl}-2-furancarboxamide]
Ki: < 1000 nM

CC(C)COc1ccc(Cl)cc1Cc1ccc(C(=O)NCc2cccc(F)c2F)o1 [Example 44, 5-({5-Chloro-2-[(2-methylpropyl)oxy]phenyl}methyl)-N-[(2,3-difluorophenyl)methyl]-2-furancarboxamide]
Ki: < 1000 nM

O=C(Nc1c(F)cccc1F)c1ccc(Cc2cc(Cl)ccc2OCc2ccccc2)o1 [Example 79, 5-({5-Chloro-2-[(phenylmethyl)oxy]-phenyl}methyl)-N-(2,6-difluorophenyl)-2-furancarboxamide]
Ki: ≤ 10 nM

CC(C)COc1ccc(Cl)cc1Cc1ccc(-c2nc3cc(C(C)(C)C)ccc3[nH]2)o1 [Example 127, 2-[5-({5-Chloro-2-[(2-methylpropyl)oxy]phenyl}-methyl)-2-furanyl]-5-(1,1-dimethylethyl)-1H-benzimidazole]
Ki: < 1000 nM

CC(C)(C)NC(=O)c1ccc(Cc2cc(Cl)ccc2OCc2ccccc2)o1 [Example 51, 5-({5-Chloro-2-[(phenylmethyl)oxy]phenyl}methyl)-N-(1,1-dimethylethyl)-2-furancarboxamide]
Ki: < 1000 nM

O=C(O)c1ccc(Cc2cc(Cl)ccc2OCc2ccncc2)o1 [Example 28, Sodium 5-({5-chloro-2-[(4-pyridinylmethyl)oxy]phenyl}methyl)-2-furancarboxylate]
Ki: ≤ 10 nM

Fc1cccc2nc(-c3ccc(Cc4cc(Cl)ccc4OCc4ccccc4)o3)[nH]c12 [Example 131, 2-[5-({5-Chloro-2-[(phenylmethyl)oxy]-phenyl}methyl)-2-furanyl]-4-fluoro-1H-benzimidazole]
Ki: < 1000 nM

CC(C)NC(=O)c1ccc(Cc2cc(Cl)ccc2OCc2ccccc2)o1 [Example 49, 5-({5-Chloro-2-[(phenylmethyl)oxy]phenyl}methyl)-N-(1-methylethyl)-2-furancarboxamide]
Ki: < 1000 nM

Clc1ccc(OCc2ccccc2)c(Cc2ccc(-c3nc4ncccc4[nH]3)o2)c1 [Example 121, 2-[5-({5-Chloro-2-[(phenylmethyl)oxy]-phenyl}methyl)-2-furanyl]-1H-imidazo[4,5-b]pyridine]
Ki: < 1000 nM

Clc1ccc(OCc2ccccc2)c(Cc2ccc(-c3nnc[nH]3)o2)c1 [Example 169, 3-[5-({5-Chloro-2-[(phenylmethyl)oxy]phenyl}methyl)-2-furanyl]-1H-1,2,4-triazole]
Ki: < 1000 nM

CN(C)c1ccc(CNC(=O)c2ccc(Cc3cc(Cl)ccc3OCc3ccccc3)o2)cc1 [Example 54, 5-({5-Chloro-2-[(phenylmethyl)oxy]phenyl}methyl)-N-{[4-(dimethylamino)phenyl]methyl}-2-furancarboxamide]
Ki: < 1000 nM

CC(C)COc1ccc(Cl)cc1Cc1ccc(-c2nc3cc(CN4CCCC4)cnc3[nH]2)o1 [Example 165, 2-[5-({5-Chloro-2-[(2-methylpropyl)oxy]-phenyl}methyl)-2-furanyl]-6-(1-pyrrolidinylmethyl)-1H-imidazo[4,5-b]pyridinedihydrochloride]
Ki: < 1000 nM

O=C(Nc1c(F)cccc1F)c1ccc(Cc2cc(Cl)ccc2OCc2cc(F)c(F)cc2F)o1 [Example 88, 5-[(5-Chloro-2-{[(2,4,5-trifluorophenyl)methyl]oxy}-phenyl)methyl]-N-(2,6-difluorophenyl)-2-furancarboxamide]
Ki: < 1000 nM

CC(C)COc1ccc(Cl)cc1Cc1ccc(NC(=O)OC(C)(C)C)o1 [Example 29, 1,1-Dimethylethyl[5-({5-chloro-2-[(2-methylpropyl)oxy]phenyl}methyl)-2-furanyl]carbamate]
Ki: < 1000 nM

CC(C)COc1ccc(Cl)cc1Cc1ccc(-c2nc3ccc(CNC(C)C)cc3[nH]2)o1 [Example 155, N-({2-[5-({5-Chloro-2-[(2-methylpropyl)oxy]-phenyl}methyl)-2-furanyl]-1H-benzimidazol-5-yl}methyl)-2-propanaminedihydrochloride]
Ki: < 1000 nM

COCCOc1ccc(Cl)cc1Cc1ccc(C(=O)O)o1 [Example 8, Sodium 5-[(5-chloro-2-{[2-(methyloxy)ethyl]oxy}phenyl)methyl]-2-furancarboxylate]
Ki: < 1000 nM

Clc1ccc(OCc2ccccc2)c(Cc2ccc(-c3nc4nccnc4[nH]3)o2)c1 [Example 102, 2-[5-({5-Chloro-2-[(phenylmethyl)oxy]phenyl}methyl)-2-furanyl]-1H-imidazo[4,5-b]pyrazine]
Ki: < 1000 nM

CC(C)COc1ccc(Cl)cc1Cc1ccc(C(N)=O)o1 [Example 68, 5-({5-Chloro-2-[(2-methylpropyl)oxy]-phenyl}methyl)-2-furancarboxamide]
Ki: < 1000 nM

CC(C)COc1ccc(Cl)cc1Cc1ccc(C(=O)NC(C)(C)C)o1 [Example 56, 5-({5-Chloro-2-[(2-methylpropyl)oxy]-phenyl}methyl)-N-(1,1-dimethylethyl)-2-furancarboxamide]
Ki: < 1000 nM

Cc1cc(C(=O)NCc2ccccc2)oc1Cc1cc(Cl)ccc1OCc1ccccc1 [Example 31, 5-({5-Chloro-2-[(phenylmethyl)oxy]phenyl}methyl)-4-methyl-N-(phenylmethyl)-2-furancarboxamide]
Ki: < 1000 nM

CC(C)COc1ccc(Cl)cc1Cc1ccc(-c2nc3cc(CN(C)C)cnc3[nH]2)o1 [Example 164, ({2-[5-({5-Chloro-2-[(2-methylpropyl)oxy]-phenyl}methyl)-2-furanyl]-1H-imidazo[4,5-b]pyridin-6-yl}methyl)dimethyl-amine dihydrochloride]
Ki: < 1000 nM

O=C(O)c1ccc(Cc2cc(Cl)ccc2OCc2ccccn2)o1 [Example 26, Sodium 5-({5-chloro-2-[(2-pyridinylmethyl)oxy]phenyl}methyl)-2-furancarboxylate]
Ki: ≤ 10 nM

CN1CCN(Cc2cccc3nc(-c4ccc(Cc5cc(Cl)ccc5OCc5ccccc5)o4)[nH]c23)CC1 [Example 160, 2-[5-({5-Chloro-2-[(phenylmethyl)oxy]-phenyl}methyl)-2-furanyl]-4-[(4-methyl-1-piperazinyl)methyl]-1H-benzimidazolehydrochloride]
Ki: < 1000 nM

O=C(Nc1c(F)cccc1F)c1ccc(Cc2cc(Cl)ccc2OCC2CC2)o1 [Example 94, 5-({5-Chloro-2-[(cyclopropylmethyl)oxy]-phenyl}methyl)-N-(2,6-difluorophenyl)-2-furancarboxamide]
Ki: < 1000 nM

Clc1ccc(OCc2ccccc2)c(Cc2ccc(-c3nc4cscc4[nH]3)o2)c1 [Example 101, 2-[5-({5-Chloro-2-[(phenylmethyl)oxy]phenyl}methyl)-2-furanyl]-1H-thieno[3,4-d]imidazole]
Ki: < 1000 nM
